pIC50: −log10 of the molar value. ≈ marks a conversion by molar mass, not a printed value. Like-named read-outs stand apart in the source and are kept apart here. Marks after values point to notes of the source that are not given here.
Experiments:
[1] = tested on: chloroquine-resistant K1 strain of P. falciparum; experiment: in vitro screen against chloroquine-resistant K1 strain of P. falciparum; assay type: cell-based; details: for IC50: Plasmodium falciparum
[2] = tested on: chloroquine-sensitive NF54 strain of P. falciparum; experiment: in vitro screen against chloroquine-sensitive NF54 strain of P. falciparum; assay type: cell-based; details: in vitro, NF54 strain
[3] = tested on: ANKA strain of P. Berghei; experiment: single dose STI in vivo screen in infected Moro SPF mice; details: for antimalarial activity, overall assessment: overall judgement of in vitro and in vivo data of Table 2; for Activity (%) po / Activity (%) sc: percent reduction in parasitemia day 3 post-infection
[4] = tested on: NB2a cell line; experiment: neurotoxicity against the NB2a cell line; assay type: cell-based
[5] = tested on: P. berghei; experiment: 1-day Peters test against P. berghei in vivo; details: for oral activity based on po ED50/ED90 values: ranking among trioxolanes and controls
[6] = tested on: P. berghei; experiment: 4-day Peters test against P. berghei in vivo; details: 4 day; for ED50: Plasmodium berghei, 96 h
[7] = tested on: 21-day-old schistosomules of Schistosoma mansoni; experiment: effect on 21-day-old schistosomules in mice; assay type: in vivo; details: single 200 mg/kg per os; for FWR (%): female worm reduction rate; for Mean female worm burden: mean ± standard deviation; for TWR (%): total worm reduction rate
Protocol: […] Each group was treated per os with OZ compounds at a single dose of 200 mg/kg. Untreated mice served as the control. All groups were killed 4 weeks after treatment and the liver and intestine were removed and separated. The liver and intestine were compressed and alive male and female worms could be seen and counted. The effect of the compounds was evaluated by mean total and female worm burden.

[8] = differential scanning calorimetry (DSC), thermal stability; assay type: physicochemical; details: thermal decomposition
[9] = tested on: adult schistosomes (49-day-old) of Schistosoma mansoni; experiment: effect on adult schistosomes (49-day-old) in mice; assay type: in vivo; details: dose used was 200 mg/kg
[10] = tested on: parasitemia; experiment: onset of drug action and recrudescence after single oral dose; assay type: in vivo; details: for duration of action compared with artemether: single 100 mg/kg po; for Recrudescence (>5% parasitemia) occurs on day: single 100 mg/kg po on day +3 post-infection
Protocol: The reduction of parasitemia was monitored 12 h after treatment, and the time of recrudescence was assessed by daily blood smears for 14 days, followed by intermittent assessment for up to 30 days.

[11] = tested on: adult schistosomes (49-day-old) of Schistosoma mansoni; experiment: effect on adult schistosomes (49-day-old) in mice; assay type: in vivo; details: single 400 mg/kg per os; for TWR (%): total worm reduction rate; for Mean total worm burden: x ± SD
Protocol: Mice were infected with 100 Schistosoma mansoni cercariae […]. Each group was treated per os with OZ compounds at a single dose of 400 mg/kg. Untreated mice served as the control. All groups were killed 4 weeks after treatment and the liver and intestine were removed and separated. The liver and intestine were compressed and alive male and female worms could be seen and counted.

[12] = single 100 mg/kg po, survival to day 30 = cure
[13] = single 100 mg/kg sc, survival to day 30 = cure

## CCOC(=O)CCC1CCCCC12OOC1(CCCCC1)O2 (centres unmarked) [OZ07, 1-[2-(Ethoxycarbonyl)ethyl]-7,14,15-trioxadispiro[5.1.5.2]pentadecane]
[1]; in vitro, K1 strain, read-out: IC50 (ng/ml) K1
  IC50: 66 ng/mL (≈ 0.211 µM)
[2]; Plasmodium falciparum, read-out: IC50 (ng/ml) NF54
  IC50: 49 ng/mL (≈ 0.157 µM)
[3]
  antimalarial activity, overall assessment: less active
[3]; single 100 mg/kg po
  Activity (%) po: 0/0%
[3]; single 100 mg/kg sc
  Activity (%) sc: 0/0%
[4]
  pIC50: 4.57

## CCOC(=O)N1CCC2(CC1)OOC1(O2)C2CC3CC(C2)CC1C3 (centres unmarked) [OZ23, Adamantane-2-spiro-3′-8′-ethoxycarbonyl-1′,2′,4′-trioxa-8′-azaspiro[4.5]decane]
[3]; 10 mg/kg po/sc data of Table 2
  in vivo activity: best in vivo activity
[5]; 1 day, po
  P. berghei (1 day) ED50 po: 1.6 mg/kg
  P. berghei (1 day) ED90 po: 5.5 mg/kg
[5]; 1 day, sc
  P. berghei (1 day) ED90 sc: NA/1.9 mg/kg
[5]; po
  oral activity based on po ED50/ED90 values: only slightly less orally active than OZ11
[6]; po
  P. berghei (4 day) ED50 po: 0.9 mg/kg
  P. berghei (4 day) ED90 po: 2.0 mg/kg
[6]; sc
  P. berghei (4 day) ED50 sc: 0.5 mg/kg
  P. berghei (4 day) ED90 sc: 0.9 mg/kg
[7]
  FWR (%): 84%
  Mean female worm burden: 2.0 ± 1.0^b
  TWR (%): 90%
[8]
  Tm dec. (° C.): 160.8 °C
[9]
  Percentage of dead worm: 4 (5/124)
  Total dead worm: 5
[9]; total worm reduction rate
  TWR (%): 0%
[9]; x ± SD
  Mean total worm burden: 39.7 ± 19.6

## c1ccc(C2CCC3(CC2)OOC2(O3)C3CC4CC(C3)CC2C4)cc1 (centres unmarked) [OZ27, Adamantane-2-spiro-3′-8′-phenyl-1′,2′,4′-trioxaspiro[4.5]decane]
[1]; in vitro, K1 strain
  IC50 (ng/ml) K1: 2.2 ng/mL (≈ 0.00646 µM)
[2]
  IC50 (ng/ml) NF54: 4.8 ng/mL (≈ 0.0141 µM)
[3]
  antimalarial activity, overall assessment: excellent activity
[5]; 1 day, po
  P. berghei (1 day) ED50 po: 1.9 mg/kg
  P. berghei (1 day) ED90 po: 3.2 mg/kg
[5]; 1 day, sc
  P. berghei (1 day) ED50 sc: 1.8 mg/kg
  P. berghei (1 day) ED90 sc: 3.1 mg/kg
[5]; po
  oral activity based on po ED50/ED90 values: only slightly less orally active than OZ11
[6]; po
  P. berghei (4 day) ED50 po: 1.3 mg/kg
  P. berghei (4 day) ED90 po: 2.6 mg/kg
[6]; sc
  P. berghei (4 day) ED50 sc: 0.2 mg/kg
  P. berghei (4 day) ED90 sc: 0.9 mg/kg
[10]
  duration of action compared with artemether: longer
  Recrudescence (>5% parasitemia) occurs on day: 11 days
[7]
  FWR (%): 58%
  Mean female worm burden: 5.2 ± 1.6^b
  TWR (%): 63%
[11]
  Percentage of dead worm: 9.6 (15/157)
  Total dead worm: 15
  TWR (%): 19.6%
  Mean total worm burden: 28.4 ± 9.5^a
[8]
  Tm dec. (° C.): 161.7 °C

## C1C2CC3CC1CC(C2)C31OOC2(O1)C1CC3CC(C1)CC2C3 (centres unmarked) [OZ04, Adamantane-2-spiro-3′-1′,2′,4′-trioxolane-5′-spiro-2″-adamantane]
[3]
  antimalarial activity, overall assessment: completely inactive
[3]; single 100 mg/kg po
  Activity (%) po: 0/0%
[3]; single 100 mg/kg sc
  Activity (%) sc: 0/0%
[3]; [12]
  Survival (days) po: 5.3/5.3 days
[3]; [13]
  Survival (days) sc: 5.3/5.3 days
[4]; NB2a cell line
  pIC50: 4.36
[7]
  FWR (%): 7%
  Mean female worm burden: 11.6 ± 3.2^a
  TWR (%): 7%
[11]
  Percentage of dead worm: 0
  Total dead worm: 0
  TWR (%): 0%
  Mean total worm burden: 37.6 ± 13.4
[8]
  Tm dec. (° C.): 150.8 °C

## C1CCC2(CC1)OOC1(O2)C2CC3CC(C2)CC1C3 (centres unmarked) [OZ03, Adamantane-2-spiro-3′-1′,2′,4′-trioxaspiro[4.5]decane]
[1]; K1, read-out: IC50 (ng/ml) K1
  IC50: 1.2 ng/mL (≈ 0.00454 µM)
[3]
  antimalarial activity, overall assessment: more active
[3]; single 10 mg/kg po
  Activity (%) po: 94%
  Survival (days) po: 7.2 days
[3]; single 10 mg/kg sc
  Activity (%) sc: 100%
  Survival (days) sc: 11.9 days
[3]; single 100 mg/kg po
  Activity (%) po: 100/100%
[3]; single 100 mg/kg sc
  Activity (%) sc: 100/100%
[3]; [12]
  Survival (days) po: 14.3 days
[3]; [13]
  Survival (days) sc: 28 days
[5]; 1 day, sc
  P. berghei (1 day) ED90 sc: 2.2 mg/kg
[5]; Plasmodium berghei, 24 h, 1 day, po, read-out: P. berghei (1 day) ED50 po
  ED50: 5 mg/kg
[5]; Plasmodium berghei, 24 h, 1 day, po, read-out: P. berghei (1 day) ED90 po
  ED90: 8.8 mg/kg
[5]; Plasmodium berghei, 24 h, 1 day, sc, read-out: P. berghei (1 day) ED50 sc
  ED50: 0.7 mg/kg
[6]; po
  P. berghei (4 day) ED90 po: 2.7 mg/kg
[6]; sc
  P. berghei (4 day) ED90 sc: 1.1 mg/kg
[6]; po, read-out: P. berghei (4 day) ED50 po
  ED50: 1 mg/kg
[6]; sc, read-out: P. berghei (4 day) ED50 sc
  ED50: 0.6 mg/kg
[4]
  pIC50: 4.89
[10]
  duration of action compared with artemether: comparable
  Recrudescence (>5% parasitemia) occurs on day: 7 days
